# How the values were obtained:
# [1] = molecular target: FGF-1 (flg) receptor tyrosine kinase; assay: FGF receptor tyrosine kinase assay; assay type: biochemical, human
# [2] = molecular target: PDGF-β receptor tyrosine kinase; assay: PDGF receptor tyrosine kinase assay; assay type: biochemical, mouse
smiles,measurement,setting,value
"CCNc1nc(Nc2ccccc2)ncc1C=CC(=O)OCC [Example 17, Ethyl 3-(4-Ethylamino-2-phenylamino-pyrimidin-5-yl)acrylate]",IC50,[1],4.5 µM
same,IC50,[2],3.7 µM

# Reference: EP0964864B1, “PYRIDO 2,3-D PYRIMIDINES AND 4-AMINOPYRIMIDINES AS INHIBITORS OF CELLULAR PROLIFERATION” (priority 1997, dated 1998)
